Assay results reported in patent publication US7524517B2, “Methods and compositions for P2X receptor calcium entry channels and other calcium entry mechanisms” (UAB Research Foundation, priority 2003, dated 2009).
pIC50: −log10 of the molar value. “Also recorded” adds a separate entry of the source.

How the values were obtained:
[1] = tested on: P2X receptor Ca^2+ entry channels; experiment: Fura-2/AM fluorescence imaging of cytosolic Ca2+ in IB3-1 CF airway epithelial cells; assay type: cell-based, human
[2] = tested on: INS-1 rat pancreatic β cells; experiment: Fura-2 fluorescence assay of cell calcium in INS-1 cells; assay type: cell-based; conditions: Na+- and Mg2+-free Ringer, zinc alone 1-50 micromolar
Method: Cytosolic Ca^2+ concentration was measured with dual excitation wavelength fluorescence microscopy (Deltascan, Photon Technologies, Princeton, N.J.) after cells were loaded with the permeant form of the fluorescence dye, Fura-2-acetoxymethyl ester (Fura-2-AM; Teflabs, Austin, Tex., USA). Fura-2 fluorescence was measured at an emission wavelength of 510 nm in response to excitation wavelength of 340 nm and 380 nm, alternated at a rate of 50 Hz by a computer-controlled chopper assembly. Ratios (340 nm/380 nm) were calculated at a […] using PTI software. Cells were incubated in Dulbecco's phosphate buffered saline containing 2 mM CaCl2 and 1 mM MgCl2 in the presence of 5 μM Fura2-AM and 1 mg/ml Pluronic F-127 dissolved in DMSO for 120 min to allow loading of the dye into the cells. After loading, coverslips were rinsed at least for 10 min in Dulbecco's phosphate buffered saline to remove extracellular Fura 2-AM and the surfactant, and were positioned in the cuvette at a 45° angle from the excitation light. […] Fluorescence intensities at both wavelengths were assessed and only those preparations in which there were >200,000 counts/s for both wavelengths were used for experiments. At the beginning of each experiment, cells were perfused with solution A (see below) and the fluorescence ratio was monitored for at least 100 sec to establish a stable baseline value. […]

calcium entry channels = experiment: Fura-2 fluorescence ratio, sustained calcium entry signals in mammalian cells (FIG. 19C); assay type: cell-based
IB3-1 CF cells = experiment: SPQ halide fluorescence assay of Cl- efflux; assay type: cell-based, human; conditions: Na+- and Mg2+-free vehicle, 3 mM Ca2+, pH 7.9
Method: Modifications to this method involved the use of NaCl at the beginning and end of protocols. Agonists were tested in NMDGNO3-containing solution (as above for Ca^2+ assays).
In our modified saline vehicle that was devoid of Na+ and Mg^2+ and enriched in Ca^2+ (3 mM) along with modifications in the halides (Cl− substituted with iodide to quench the SPQ dye and nitrate to unquench), ATP plus zinc or zinc alone was added to IB3-1 CF cells and halide efflux was rescued in these cells. The effects were dependent upon an alkaline extracellular pH (pH 7.9) and the presence of extracellular Ca^2+. In essence, the rescue of Cl− transport (measured with a different halide in this case) was dependent upon the same chemical conditions as the zinc-induced Ca^2+ entry.

ENaC [3] = biological target: T1, ENaC (Mus musculus, UniProt Q61180+Q9WU38+Q9WU39); experiment: Ussing chamber / voltohmmeter recordings of ENaC-mediated Na+ absorption in airway and PKD collecting duct monolayers; assay type: cell-based; conditions: for concentrations required for inhibition in ISC recordings / doses inhibitory in PD assays: ARPKD sodium hyperabsorption; for doses inhibitory in PD assays: VTE/PD
T1 construct: from tissue; host or cells: nasal mucosa of living control, Cincinnati bitransgenic CF and delF508 CF mice
T1 sequence (Q61180 1-699): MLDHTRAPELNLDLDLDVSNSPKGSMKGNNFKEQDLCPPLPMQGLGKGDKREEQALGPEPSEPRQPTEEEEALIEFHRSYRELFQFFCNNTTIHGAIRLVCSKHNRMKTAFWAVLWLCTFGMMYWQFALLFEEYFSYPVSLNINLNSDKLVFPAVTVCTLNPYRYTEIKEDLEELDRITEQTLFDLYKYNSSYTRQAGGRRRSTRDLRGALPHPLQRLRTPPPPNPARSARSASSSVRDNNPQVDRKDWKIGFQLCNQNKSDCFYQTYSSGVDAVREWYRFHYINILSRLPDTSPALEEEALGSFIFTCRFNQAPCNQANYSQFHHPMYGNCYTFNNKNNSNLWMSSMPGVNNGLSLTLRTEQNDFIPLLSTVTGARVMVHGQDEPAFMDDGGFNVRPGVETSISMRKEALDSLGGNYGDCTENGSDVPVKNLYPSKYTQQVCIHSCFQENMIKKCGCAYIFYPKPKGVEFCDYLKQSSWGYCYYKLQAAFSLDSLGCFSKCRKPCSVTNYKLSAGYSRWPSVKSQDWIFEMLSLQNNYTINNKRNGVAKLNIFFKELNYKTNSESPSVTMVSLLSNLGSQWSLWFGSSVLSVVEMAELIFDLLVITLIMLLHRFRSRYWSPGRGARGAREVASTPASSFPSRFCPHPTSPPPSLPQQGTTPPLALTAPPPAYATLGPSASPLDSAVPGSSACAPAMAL
T1 sequence (Q9WU38 1-638): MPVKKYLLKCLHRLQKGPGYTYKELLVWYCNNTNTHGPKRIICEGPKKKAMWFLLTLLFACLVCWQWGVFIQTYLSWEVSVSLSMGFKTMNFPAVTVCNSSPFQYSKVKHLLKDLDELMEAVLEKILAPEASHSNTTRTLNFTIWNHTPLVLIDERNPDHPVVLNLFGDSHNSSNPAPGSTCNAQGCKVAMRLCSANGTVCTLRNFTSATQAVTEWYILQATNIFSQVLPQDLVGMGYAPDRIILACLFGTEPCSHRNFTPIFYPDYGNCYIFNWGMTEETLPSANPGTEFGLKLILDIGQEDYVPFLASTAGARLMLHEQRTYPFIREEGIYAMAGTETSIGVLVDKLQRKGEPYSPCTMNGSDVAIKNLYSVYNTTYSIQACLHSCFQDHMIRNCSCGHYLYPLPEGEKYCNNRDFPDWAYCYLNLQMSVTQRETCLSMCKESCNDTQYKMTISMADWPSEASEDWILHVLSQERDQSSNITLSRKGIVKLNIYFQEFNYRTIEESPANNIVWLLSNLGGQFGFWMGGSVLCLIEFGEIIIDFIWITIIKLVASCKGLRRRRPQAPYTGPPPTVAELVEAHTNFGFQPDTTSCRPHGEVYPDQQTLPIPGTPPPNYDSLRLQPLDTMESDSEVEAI
T1 sequence (Q9WU39 1-655): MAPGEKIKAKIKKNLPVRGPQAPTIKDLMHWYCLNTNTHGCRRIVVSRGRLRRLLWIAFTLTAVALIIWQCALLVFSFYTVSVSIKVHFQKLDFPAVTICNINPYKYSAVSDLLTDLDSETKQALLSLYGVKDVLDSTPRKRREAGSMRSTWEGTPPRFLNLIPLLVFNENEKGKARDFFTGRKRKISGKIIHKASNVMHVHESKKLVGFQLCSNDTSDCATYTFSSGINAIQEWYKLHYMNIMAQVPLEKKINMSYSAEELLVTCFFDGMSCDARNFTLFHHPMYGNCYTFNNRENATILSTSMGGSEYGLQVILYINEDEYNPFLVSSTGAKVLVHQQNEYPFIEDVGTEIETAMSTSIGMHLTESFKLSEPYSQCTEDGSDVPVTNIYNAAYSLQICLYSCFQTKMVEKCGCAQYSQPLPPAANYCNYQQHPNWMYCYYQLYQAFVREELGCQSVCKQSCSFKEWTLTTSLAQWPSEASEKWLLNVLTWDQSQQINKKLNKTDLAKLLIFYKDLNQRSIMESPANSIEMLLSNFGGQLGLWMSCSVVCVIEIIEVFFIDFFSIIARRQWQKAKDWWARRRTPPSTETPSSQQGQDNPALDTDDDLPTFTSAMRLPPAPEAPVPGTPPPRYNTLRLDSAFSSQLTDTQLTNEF

ENaC [4] = biological target: T1, ENaC; experiment: In vivo nasal potential difference, ENaC-mediated Na+ absorption
[5] = tested on: non-mucoid and mucoid Pseudomonas aeruginosa; experiment: Bacterial growth in liquid LB medium and on LB-agar plates; assay type: cell-based
INS-1 cells = experiment: ELISA of insulin secretion from INS-1 cells; assay type: cell-based, rat; conditions: 15 seconds to 120 minutes after stimulation
[6] = tested on: Cl− transport across the nasal mucosa; experiment: In vivo nasal potential difference, rescue of Cl- secretion; design: species or system mouse; conditions: CF mice

## [Cu] [copper]
[1]
  effect on zinc effects (Ca2+ entry): competitively inhibit

## [Zn+2] [zinc]
[1]; Ca2+-free medium
  zinc-induced increases in Ca2+: small and transient
[2]
  effect on cell calcium / Ca2+ entry: further sustained increase in Ca^2+ entry; also recorded: small transient increase above the sustained plateau
Calcium entry channels; Na+ free conditions, pH 7.9
  Fura-2 fluorescence ratio, sustained calcium entry: 2.1
IB3-1 CF cells
  halide efflux / Cl- permeability in CF cells: rescued
ENaC [3]
  concentrations required for inhibition in ISC recordings: Millimolar
  doses inhibitory in PD assays: mid-micromolar
ENaC [3]; Ussing chamber recordings
  concentration range inhibiting ENaC: 50 to 100 µM
ENaC [4]; Cincinnati bitransgenic CF mouse
  depolarization of NPD: ~10 mV
ENaC [4]; control mouse, NaCl-replete lactated Ringer
  depolarization of NPD: 3-4 mV
ENaC [4]; deIF508 CF mouse
  depolarization of NPD: 6-7 mV
[5]; read-out: IC50, bacterial growth inhibition
  pIC50: 2.30 to 3.00
INS-1 cells
  insulin secretion versus glucose stimulus: even more potent stimulus than glucose

## C[C@H](CCC(=O)O)C[C@H](C)C[C@H](C)C(=O)/C=C(\O)[C@H](C)C[C@H](C)C/C=C/[C@@H](C)[C@@H](O)[C@@H](C)[C@@H](O)C[C@@H]1CC[C@@](C)([C@H]2CC[C@@](C)([C@@H](C)O)O2)O1 [ionomycin]
Calcium entry channels; ionomycin 2 μM
  Fura-2 fluorescence ratio, sustained: 3.4

## C/C=C(/C)C(=O)O[C@H]1C(C)=C2[C@H]([C@@H]1OC(=O)CCCCCCC)[C@@](C)(OC(C)=O)C[C@H](OC(=O)CCC)[C@@]1(O)[C@H]2OC(=O)[C@@]1(C)O [thapsigargin]
[1]; thapsigargin pretreatment, Ca2+-free medium
  effect on zinc-induced Ca2+ transients: abolished
Calcium entry channels; thapsigargin 100 nM, ER store depletion and re-addition of extracellular calcium
  Fura-2 fluorescence ratio, transient peak (store-operated calcium channels): 3.0

## [Cl-].[Cl-].[Zn+2] [ZnCl2, zinc chloride]
IB3-1 CF cells
  halide efflux / Cl- permeability in CF cells: restored Cl− permeability

## CC(C)NCC(O)c1ccc(O)c(O)c1 (centres unmarked) [isoproterenol]
[6]
  effect on nasal PD: without effect

## [Ni] [nickel, reference compound]
ENaC [3]
  concentrations required for inhibition in ISC recordings: Millimolar
  doses inhibitory in PD assays: mid-micromolar

## ferrous sulfate
[5]
  growth, iron competition experiment: inhibit

## O=S(=O)([O-])[O-].O=S(=O)([O-])[O-].O=S(=O)([O-])[O-].[Fe+3].[Fe+3] [Ferric iron, ferric sulfate]
[5]
  growth, iron competition experiment: enhanced growth significantly

## ivermectin
[1]; included with ATP and/or zinc, Fura-2 quenching and direct Fura-2 assays
  effect on zinc and/or ATP induced manganese or calcium entry: potentiated
